One series concerns HEK 293T cells. Description: Inhibition of reactive oxygen species production (ROS-Glo H2O2 Assay). The class given is cell-based, human. Conditions: 18 hours incubation; for EC50: Homo sapiens, HEK-293T, 18 h; for inhibition of active oxygen production (up to), compared to the DMSO control: 0-30 micromole/L. The procedure: Mitochondrial reactive oxygen species-induced oxidative stress is the source of many diseases. This experiment is used to test whether the carbonyl-containing cyclic compounds provided by the present invention can reduce the production of reactive oxygen species. HEK 293T cells were divided into 96-well plates at 5000 cells per well, cultured in a 37° C. carbon dioxide incubator with serum-free Duchenne's Modified Eagle's Medium (DMEM) for 6 hours, and then representatives for compounds listed in Table 2 and 3 were added to a final concentration of 0, 0.1, 0.3, 1, 3, 10, 30 micromole/L, with each concentration in triplicate. After 18 hours of incubation, the reactive oxygen species detection kit (ROS-Glo™ H2O2 Assay) and the GloMax microplate fluorescence detector (Promega, USA) were used to detect reactive oxygen species production. At the same time, pioglitazone was used as a control. The amount of fluorescence is positively related to the production of reactive oxygen species. A three-parameter Sigmoid function curve was used to fit the obtained data. The abscissa represents the logarithmic value of the concentration, and the ordinate represents the percentage of reduced reactive oxygen species production relative to those of the control. Then EC50 value was calculated with professional software.

Another series relates to APP/PS1 transgenic mice. Description: Alzheimer's disease model, eight-arm radial water maze and brain gene expression. The class given is in vivo, mouse. The settings on record: 30 days in food, 10 mg/kg body weight/day (donepezil 3 mg/kg body weight/day), 5 on the first day. The text has this: A common indicator used in academia in memory and dementia experiments is the number of errors in the water maze (reference memory). More errors mean poorer memory. On the last 3 days of dosing, eight-arm radial water maze was used by experimenters who were blind to drug treatment. As a classic experimental instrument, to detect slight deficits in learning and memory, the eight-arm water maze is more sensitive than not only Morris maze, but also Six-arm radial water maze. For details, see reference 8: Alamed J et al. Two-day radial-arm water maze learning and memory task; robust resolution of amyloid-related memory deficits in transgenic mice [J]. […] This experiment uses an eight-arm water maze built in accordance with the above literature. The eight-arm water maze is placed in a basin with an interior diameter of 102 cm. Each arm measures 30 cm long, 14.5 cm wide, and 40 cm high. Escape platform is located at the end of one of the arms. In the reference memory version of the task described here, the goal arm is held constant for all trials, with a different start arm on successive trials. On day one, mice received 12 trials, with trials alternating between visible and hidden platform. On day 2 and 3, mice received 12 additional trials but the platform was kept hidden throughout the trials. Entry into an incorrect arm was scored as a spatial reference error. Errors were averaged into three trial blocks, with four blocks per day, e.g., the first block (the 1st to 3rd trial), the second block (the 4th to 6th trial), and so on. […]. The line charts were made with the number of blocks as the abscissa and the average of the number of errors as the ordinate. At the end of the experiments, the cerebral cortex and hippocampus of the mice were removed, RNA was extracted, and the expression of many genes was analyzed by semi-quantitative RT-PCR. […] The difference is significant with P<0.05.

The next series concerns db−/db− mice. Description: Diabetic peripheral neuropathy model, Von Frey threshold, sciatic nerve ROS and MDA. The class given is in vivo, mouse. The settings on record: in food 10 mg/kg body weight/day (pregabalin 30 mg/kg body weight/day). Here is the method: Male 5-6 week-old male db^−/db^− mice were used in the experiment, and their normoglycemic heterozygous littermates were used as controls. db^−/db^− is a commonly used type 2 diabetes animal model. The compounds was dissolved in DMSO and mixed into food pellets. The animals were given ad libitum access to the pellets, beginning from 8 to 9 weeks of age for 10 weeks. […] The method for detecting mice hindlimb hypersensitivity is performed using Von Frey filaments. […] The difference is significant with P<0.05. The increase of mitochondrial reactive oxygen species (ROS) in the sciatic nerve of mice, which in turn leads to the increase of intracellular malondialdehyde (MDA), is the etiology of this type of neuropathic pain. The efficacy of compound to treat the root cause of the disease was evaluated by measurement of the levels of MDA and mitochondrial ROS from the sciatic nerves.

The test system of series [1] is MPTP-HCl Parkinson's disease model mice. Description: Parkinson's disease model (MPTP-HCl), beam traversal test. The settings on record: MPTP-HCl/probenecid mice, 5 mg/kg body weight intraperitoneal daily, 35 days.
Description: Three month-old male wild type mice were used in the experiment. The treatment lasted for a total of 35 days. […] For all abovementioned groups, Motor skills were assessed on the 36th to 40th days after compound administration. Beam traversal test is a method commonly used in academia to detect movement coordination in animals with Parkinson's disease. […] The mice were first trained for 2 consecutive days, and taught to trained to traverse the length of the beam. On the day of the test, a mesh grid (1 cm squares) of corresponding width was placed over the beam surface leaving a ˜1 cm space between the grid and the beam surface. Animals were then videotaped while traversing the grid-surfaced beam for a total of five trials. An error was counted when, during a forward movement, a forelimb or hindlimb slipped through the grid. The number of errors made per step (referred to as “error per step scores”) was counted. An analysis of variance (ANOVA) and Dunnett post hoc comparison test are used to compare the significance of the differences between different groups of data. The difference is significant with P<0.05.
A further series addresses T1, PPARγ (Homo sapiens, UniProt P37231).
T1 construct: expressed in transfected cells; host or cells: HEK 293 T cells
T1 sequence (P37231 1-505): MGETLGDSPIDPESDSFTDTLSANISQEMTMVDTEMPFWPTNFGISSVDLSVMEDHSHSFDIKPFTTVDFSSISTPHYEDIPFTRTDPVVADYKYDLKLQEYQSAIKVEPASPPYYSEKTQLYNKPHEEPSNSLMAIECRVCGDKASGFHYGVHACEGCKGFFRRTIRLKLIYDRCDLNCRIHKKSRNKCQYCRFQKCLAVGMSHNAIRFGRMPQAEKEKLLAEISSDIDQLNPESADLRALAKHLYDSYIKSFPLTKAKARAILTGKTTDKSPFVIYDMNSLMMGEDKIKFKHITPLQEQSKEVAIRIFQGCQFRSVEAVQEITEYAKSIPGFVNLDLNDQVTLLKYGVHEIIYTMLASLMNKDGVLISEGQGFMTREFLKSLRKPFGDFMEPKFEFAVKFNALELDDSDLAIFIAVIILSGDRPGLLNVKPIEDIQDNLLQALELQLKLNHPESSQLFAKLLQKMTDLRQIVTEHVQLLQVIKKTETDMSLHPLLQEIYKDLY
Description: In vitro transcriptional activity of PPARγ gene (PPRE-luciferase reporter, HEK 293 T cells). The class given is cell-based. The settings on record: HEK 293 T cells transfected with PPARγ expression and PPRE-luc plasmids, 21 hours; read-out: EC50 of PPARγ gene activation. The text has this: In this experiment, the PPARγ gene was used as target gene to detect the in vitro transcription activity of the compounds. The compounds of interest were detected was first dissolved with dimethyl sulfoxide (DMSO). […] First two plasmids were constructed: PPARγ protein expression plasmid and luciferase reporter plasmid. They are both from the lentiviral plasmid pLV-CMVIE-ZsGreen-Puro, whose DNA sequence contains the cytomegalovirus immediate early (CMVie) promoter, ZsGreen and Puro dual reporter. The PPARγ expression plasmid pLV-CMVIE-PPAR[…]-ZsGreen-Puro was constructed by cloning full-length coding sequences of the pertinent receptors into pHBLV-CMVIE-ZsGreen-Puro vector. To construct the luciferase (luc) reporter plasmid pLV-PPRE-luc-ZsGreen-Puro, the CMVie promoter in plasmid pHBLV-CMVIE-ZsGreenPuro was first replaced by a peroxisome proliferator responsive element (PPRE) containing fragments comprised the nucleotide sequence 50-[…], repeated four times in tandem, to generate a new plasmid, at a multiple cloning site of which the luc gene was then inserted. […] The compounds used for screening are representatives for compounds listed in Table 2, and Tables 3 of the present invention. […] Cells were distributed in 10-cm tissue culture plates at a density of 5.5 million cells per plate, and then transfected with the luciferase reporter plasmid (6 nanogram/plate) and the PPARγ expression plasmid (18 nanogram/plate). Cells were cultured for 6 hours. […] Then the cells were distributed in 96-well plates at a density of 20,000 cells per well. After incubation for 6 h, compounds or control with different concentration were placed into each well, resulting in the finical concentration of […] with each concentration in triplicate. Twenty-one hours later, promoter activation was detected by the addition of SteadyLite (PerkinElmer, Waltham, MA) and GloMax 96 Microplate Luminometer (Promega, Madison, WI). The amount of Luminometer emitted from each well is positively correlated with the expression of PPARγ gene. A three-parameter Sigmoid function curve was used to fit the obtained data. The abscissa represents the logarithmic value of the concentration, and the ordinate represents the percentage of PPARγ gene activation relative to those of the control. […] In Statistical analysis, the coefficient of variation is used to measure the robustness and repeatability of the experiment. […] The difference is significant with P<0.05. EC50 is a parameter of its activity.

For a further series, the system named is klotho gene promoter. Description: In vitro transcriptional activity of klotho gene (KL-Luc-3 luciferase cell line). The class given is cell-based. The settings on record: 16 h, KL-Luc-3 cells, 16 hours incubation. From the text: The activities of these carbonyl-containing cyclic compounds are indicated by the increased expression of klotho gene. […] The present invention retains the DNA fragment of the klotho gene promoter, but replaces the DNA sequence of the coding region of the klotho gene with those of luciferase, so that the degree of activation of the klotho gene promoter and the expression of the klotho gene will be sensitively determined by detecting the luciferase luminescence signal.
Klotho is an important downstream gene of PPARγ pathway. The following experiments tested the properties of the compounds in Table 2 and 3 to activate the klotho gene in vitro. First, a stable cell line, KL-Luc, was constructed. The klotho gene carried by the cell line retained the DNA sequence of klotho gene promoter, but the coding sequence of the klotho gene was replaced with luciferase. KL-Luc fragment includes a promoter sequence of the klotho gene (a DNA region of 18,000 base pairs in length upstream of the transcription start site of the gene) and a luciferase-encoding sequence. To construct the KL-Luc sequence containing lentiviral vector, the KL-Luc fragment was cloned into the pDONR vector using BP recombinase, so that the target fragment had attL recombination sites on both sides. Then the KL-Luc fragment was transferred from the pDONR vector to a lentiviral vector (without exogenous promoter) pLenti6/BLOCK-IT-DEST. The constructed lentiviral vector of the target fragment was then transfected into HEK293T cells, and then the KL-Luc gene lentiviral expression vector and the […] were co-transfected into HEK293T cells to perform lentiviral packaging. The virus was harvested, and virus titer was calculated. And the lentivirus was used to infect target cells. The stable strains were screened by adding drugs. Finally, monoclonal cell lines were selected from polyclonal cells by cell cloning. The effective luciferase expression of each monoclonal cell line was determined by quantitative polymerase chain reaction (qPCR). The inventors chose a third monoclonal cell line (KL-Luc-3) to continue the compound screening. The compounds of interest were the compounds in Table 2 and 3. At the same time, rosiglitazone and pioglitazone were used as a control. KL-Luc-3 cells were divided into 96-well plates at 5000 cells in 80 microL per well, cultured in a 37° C. carbon dioxide incubator with serum-free Duchenne's Modified Eagle's Medium (DMEM) for 6 hours, and then the compounds were added to a final concentration of 0, 0.1, 0.3, 1, 3, 10, 30 micromole/L, with each concentration in triplicate. After 16 hours of incubation, the SteadyLite (PerkinElmer, Waltham, MA) and the GloMax Microplate Luminometer (Promega, USA) were used for quantitation of luciferase activity. The amount of luminescence emitted from each well is positively related to the transcriptional activity of the klotho promoter. A three-parameter Sigmoid function curve was used to fit the obtained data. The abscissa represents the logarithmic value of the concentration, and the ordinate represents the percentage of the activity relative to those of the control. […] In Statistical analysis, the coefficient of variation is used to measure the robustness and repeatability of the experiment. […] The difference is significant with P<0.05. EC50 is a parameter of its activity. The lower the EC50 value, the higher the activity of corresponding compound.

A short description of series [2]: Blood-brain barrier permeability: brain concentration after a single injection. The class given is in vivo, rat. The settings on record: for AUC(0-t): male, rat, in vivo, ip, 10 mg/kg. The procedure: The blood-brain barrier permeability of carbonyl-containing cyclic compounds is determined in in vivo studies. Healthy male rats used in the study were divided into compound group and control group. […] The brains were dissected, heated immediately at boiling water for 2 min, homogenized with methanol, and centrifuged. The upper layer was collected and dried under vacuum to remove solvents, and then resuspended in methanol. The above samples are filtered through a 0.45 micron nylon membrane, and then 20 microL of sample were load into a high-performance liquid chromatographic (HPLC) system (Model LC-16P, Shimadzu, Japan) to perform quantitative analysis.

Series [3] deals with dIoN-CCI rat model of trigeminal neuropathic pain. Description: Trigeminal neuralgia model (dIoN-CCI), Von Frey mechanical threshold. The settings on record: dIoN-CCI rats.
Description: A common rat model of trigeminal neuralgia is a chronic compression injury model (CCI) caused by ligation of the infraorbital nerve (IoN). In the present study, an improved rat model of trigeminal neuropathic pain was used, in which CCI is induced by ligation of distal segment of IoN (dIoN). Wild type male Sprague-Dawley rats with body weight 250 to 260 grams underwent dIoN-CCI surgery experiments. The mechanical threshold of pain in rats without surgery experiments will exceed 6 grams. If the dIoN-CCI surgery is successful, it will reduce the pain threshold to less than 2 grams.
The mice were divided into the following 11 groups with 4 to 5 mice in each group. The formulation used for transdermal treatment is cream. […] The compound administration of each group starts on the third day after successful dIoN-CCI surgery. […] The method for detecting rat facial hypersensitivity is performed using Von Frey filaments. An analysis of variance (ANOVA) and Dunnett post hoc comparison test are used to compare the significance of the differences between different groups of data. The difference is significant with P<0.05.
Setting [4] is: compared with healthy control group.

Each structure is given as a SMILES string.

`CCc1ccc(CCCCc2ccc3c(c2)C(=O)CC3)cc1` [ELB00825, 6-(4-(4-ethylphenyl)butyl)-2,3-dihydro-1H-inden-1-one] returned an EC50 in the series with HEK 293T cells of less than 10 µM. In the series on APP/PS1 transgenic mice, the “number of errors in water maze on the third day” value was “comparable to that of ELB00824”. Besides, in the series on db−/db− mice (setting [4]), the “level of MDA in the sciatic nerve after 10 week treatment” value is given as “reduced” and the “level of mitochondrial ROS in the sciatic nerve after 10 week treatment” value is “reduced”. The “mechanical pain threshold after 10 week treatment” value in the series on db−/db− mice (compared with normal control group) is reported as “significantly improved”. Besides, in series [1], the “number of errors per step in beam traversal test compared with disease control group” value was “significantly lower”.

Regarding `CCc1cccc(CC/C=C/c2ccc3c(c2)C(=O)CC3)c1` [ELB001203, 6-((1E)-4-(3-ethylphenyl)but-1-en-1-yl)-2,3-dihydro-1H-inden-1-one], the EC50 is less than 3 µM in the series with HEK 293T cells, less than 6.4 µM on PPARγ and less than 9.7 µM with klotho gene promoter.

On to `CCc1ccc(CCOc2ccc(CC3SC(=O)NC3=O)cc2)nc1` (stereo not drawn) [pioglitazone, reference compound], for which the “inhibition of active oxygen production (up to), compared to the DMSO control” value in the series on HEK 293T cells is given as “up to 42%”. This compound also yielded an EC50 in the series with HEK 293T cells of 0.7 µM. The AUC(0-t) in series [2] (AUC0-6 h) is 1510 ng·h/mL; in series [2] (AUC0-24 h), 3520 ng·h/mL. Also, in series [2] (rat brain, 10 mg/kg intraperitoneal, single injection), the “time to maximum brain concentration (Tmax)” value is 1 h. Moreover, the “minimum effective anti-allodynic dose” value in series [3] (oral) is 300 mg/kg. The “mechanical threshold 2 hours after oral administration” value in series [3] (oral 300 mg/kg body weight, Von Frey) was 4.9 ± 0.9 g.

For the compound `CN(CCOc1ccc(CC2SC(=O)NC2=O)cc1)c1ccccn1` (stereo not drawn) [rosiglitazone, reference compound], the “inhibition of active oxygen production (up to), compared to the DMSO control” value in the series with HEK 293T cells was “up to 58%”. The figures for the EC50 with HEK 293T cells and with klotho gene promoter were 2.5 µM and 9.7 µM, respectively. Besides, the AUC(0-t) in series [2] (AUC0-6 h) worked out at 774 ng·h/mL; in series [2] (AUC0-24 h), 1930 ng·h/mL.

In general, EC50 refers to the midpoint of the concentration-response curve. What is called AUC(0-t) is exposure summed from dosing to a finite time, without extrapolation to infinity. A high value points to high exposure.
